Measured values published in PMC12858582, “A coral-derived neuropeptide suppresses pentylenetetrazol (PTZ)-induced epileptic seizures and improves recognition memory deficits by modulating NPY-Y1R” (Archives of Toxicology, 2025).
Where no end group is shown, it is not given here.

Assays:
HT22 cells = test: HT22 cell viability (MTT assay); type: cell-based, mouse; conditions: for cell viability: 24 h
Description: The HT22 cell line was obtained from the ATCC (Manassas, VA, USA) and cultured in DMEM medium with an additional 10% fetal bovine serum (Gibco, US origin), 1% penicillin (100 U/mL) and streptomycin 100 (µg/mL) in a humidified 5% CO2 atmosphere at 37 °C. Cell viability was evaluated by measuring the activity of mitochondrial dehydrogenases with 3-(4,5-dimethyl-2-thiazolyl) 2,5 diphenyl-2H-tetrazolium bromide (MTT) assay (Sigma-Aldrich, USA). Briefly, HT22 cells were seeded in 96-well plates at a density of 8 × 10^3 cells per well. After various drug incubation, cells were incubated in 0.5 mg/mL MTT solution for 4 h at 37 °C. The supernatant medium was then discarded, and 100 µL of DMSO per well was added to dissolve the violet-formazan crystals. The absorbance at 570 nm wavelength was then tested by SpectraMax M5 (Wallac, The Netherlands). Under the same cell culture conditions as the cell viability assay, cytotoxicity was also evaluated via LDH release using an LDH assay kit (Beyotime, China). After different treatments, the supernatant of the cell culture medium was collected and tested according to the manufacturer’s protocol. The absorbance at 490 nm wavelength of supernatant was recorded by SpectraMax M5 (Wallac, The Netherlands).

C57BL/6 J mice [1] = test: PTZ-kindling-induced epileptic mice model; type: in vivo
Description: The PTZ-kindling-induced epileptic mice model was monitored as previously described (Singh et al. [2021]). PTZ (30 mg/kg, subconvulsive dose) was dissolved in saline and administered via intraperitoneal injection. TpNPY was dissolved in saline and delivered through daily intravenous injection of increasing concentrations (0.25 mg/kg, 0.5 mg/kg and 1 mg/kg) 30 min before PTZ injections for 14 consecutive days. Randomized grouping was used to divide C57BL/6 mice into 7 groups with 10 mice in each group. Then, behavioral observation was carried out at the same time, until the seizure of mice was kindled. The PTZ-only group was not exposed to TpNPY, and the control group was only given saline.

C57BL/6 J mice [2] = test: Morris water maze (MWM) test; type: in vivo; conditions: MWM test stage, n = 6
Description: The Morris Water Maze (MWM) test assessed spatial learning and memory in mice (Bromley-Brits et al. [2011]). A circular pool (opaque with milk powder) was divided into four quadrants, with a hidden platform submerged in the third quadrant. Eight-week-old male C57BL/6 J mice were trained over five days (4 trials/day) to locate the platform, guided by visual cues. Escape latency (max 60 s) and platform stay time (30 s) were recorded. A probe trial (platform removed) was conducted 24 h post-training, recording time to the platform site, crossings, speed, and distance via a video camera connected to the ANY-maze Video Tracking System.

zebrafish larvae = test: Zebrafish larvae survival/mortality; type: in vivo; conditions: 24 h exposure, 6-dpf AB wild-type larvae
Description: The 6-day post-fertilization (6-dpf) AB wild-type zebrafish were treated with various concentrations of TpNPY for 24 h in zebrafish-specific E3 culture medium. The mortality of zebrafish was calculated based on the observation of their heartbeat. To trigger seizures, zebrafish larvae were subjected to zebrafish culture medium containing 10 mM PTZ (Sigma-Aldrich, purity ≥ 99%) in 96-well plates. Their locomotor behaviors were recorded using a digital video tracking system (ViewPoint Behavior Technology, France).

[3] = biological target: T1, NPY-Y1 receptor (NPY-Y1R) (Homo sapiens, UniProt P25929); test: SPR
T1 chain: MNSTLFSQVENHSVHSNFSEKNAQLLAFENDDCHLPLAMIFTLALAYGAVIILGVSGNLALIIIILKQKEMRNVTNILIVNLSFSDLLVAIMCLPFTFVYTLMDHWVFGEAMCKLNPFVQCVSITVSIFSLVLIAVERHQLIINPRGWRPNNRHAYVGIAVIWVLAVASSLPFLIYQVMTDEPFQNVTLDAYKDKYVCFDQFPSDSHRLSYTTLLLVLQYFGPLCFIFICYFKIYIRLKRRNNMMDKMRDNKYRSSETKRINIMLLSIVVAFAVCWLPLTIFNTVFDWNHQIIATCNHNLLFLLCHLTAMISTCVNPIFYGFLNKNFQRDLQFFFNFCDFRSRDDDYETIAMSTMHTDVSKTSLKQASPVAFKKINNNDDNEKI

N[C@@H](CCC(=O)O)C(=O)O [glutamate]
cell viability (HT22 cells; 10 mM glutamate): 78.22% | cell viability (HT22 cells; 15 mM glutamate): 64.78% | cell viability (HT22 cells; 20 mM glutamate): 40.82%

C1CCc2nnnn2CC1 [PTZ, Pentylenetetrazole, reference compound]
seizure score (C57BL/6 J mice [1]; PTZ-treated group, PTZ 30 mg/kg i.p., no TpNPY, after 15 injections, mean ± SEM, SEM): 4.91 ± 0.41

VGGPPKRPESFKSMAELNAYLSDLAGYYTVIGRPRF-NH2 [TpNPY]
swimming speed (C57BL/6 J mice [2]): without affecting swimming speed | cell viability (cytotoxicity of TpNPY) (HT22 cells; 1.56 to 50 μM, 24 h incubation): did not elicit any significant changes in cell viability | mortality rate of zebrafish larvae (zebrafish larvae; 40 μM): approximately 50% | survival rate of zebrafish larvae (zebrafish larvae; 6-25 μM): did not lead to any substantial changes in the survival rate | behavior of mice, TpNPY alone (C57BL/6 J mice [1]; TpNPY without PTZ): no obvious influence on the behavior of mice

VGGPPKRPESFKSMAELNAYLSDLAGYYTVIGRPRF-NH2 [TpNPY]
Kd [3]: 1.98 µM
